≈ marks a conversion by molar mass, not a printed value.
Key:
Venturia inaequalis = assay: Fungitoxicity assay against Venturia inaequalis (in vitro, microtiter MIC); type: cell-based; settings: 168 h, minimum inhibitory concentration, 7 days at 25° C.
Procedure: The compounds of Examples 1-20 were tested in vitro for fungicidal activity and phytotoxicity. A. The compounds were tested in vitro for fungicidal activity against Pythium ultimum, Botrytis cinerea and Venturia inaequalis. Fungitoxicity assay against Venturia inaequalis: Test compounds were dissolved in dimethylsulfoxide at 1 milligram per milliliter (mg/ml), and 50 ul added to 950 ul of yeast extract-dextrose medium (YED, 0.4% yeast extract, 2% dextrose) to give 50 part per million (ppm) solutions. Minimum inhibitory concentration (MIC) values were determined using a microtiter assay with twofold serial dilutions of the prepared 50 ppm solutions (100 ul) in YED medium. Inoculum consisted of a spore suspension of V. inaequalis in YED medium at 2.5×10^5 spores per ml. […] Results of the testing for fungicidal activity against the above named fungi are set forth below in Table 3 as Pythium EC50 (ppm), Botrytis EC50 (ppm) and Venturia MIC (ppm), respectively.

Pythium ultimum [1] = assay: Fungitoxicity assay against Pythium ultimum (in vitro, mycelial dry weight); type: cell-based; settings: Globisporangium ultimum, 48 hours at 25° C., read-out: Pythium EC50
Procedure: The compounds of Examples 1-20 were tested in vitro for fungicidal activity and phytotoxicity. A. The compounds were tested in vitro for fungicidal activity against Pythium ultimum, Botrytis cinerea and Venturia inaequalis. Fungitoxicity assay against Pythium ultimum: A dilution series of test compound was prepared in dimethylsulfoxide, and 0.1 milliliter (ml) of each dilution was added to 19.9 ml of a liquid asparagine-sucrose broth ([…]. and Katznelson, K., 1971, Can. J. […] Each plate was inoculated with a mycelial plug, 7 millimeters (mm) in diameter, taken from the growing edge of a culture of Pythium ultimum grown on potato dextrose agar. Two replicate plates were used for each treatment. The increase in mycelial dry weight was determined after growth for 48 hours at 25° C. with shaking on a gyrotary shaker at 60 revolutions per minute (rpm). EC50 values were calculated from dose response curves. As used herein, the terminology "EC50" means the concentration of test compound required to inhibit growth by 50% as compared to a control lacking the test compound. Results of the testing for fungicidal activity against the above named fungi are set forth below in Table 3 as Pythium EC50 (ppm), Botrytis EC50 (ppm) and Venturia MIC (ppm), respectively.

Botrytis cinerea [2] = assay: Fungitoxicity assay against Botrytis cinerea (in vitro, colony diameter); type: cell-based; settings: 48 hours at 25° C., read-out: Botrytis EC50
Procedure: The compounds of Examples 1-20 were tested in vitro for fungicidal activity and phytotoxicity. A. The compounds were tested in vitro for fungicidal activity against Pythium ultimum, Botrytis cinerea and Venturia inaequalis. Fungitoxicity assay against Botrytis cinerea: […] The mixtures were poured immediately into 9 centimeter (cm) diameter petri dishes. Two replicate plates were used for each treatment. Each plate was inoculated with a 7 mm diameter plug taken from the growing edge of a 5 day old culture of B. cinerea on potato dextrose agar. […] Results of the testing for fungicidal activity against the above named fungi are set forth below in Table 3 as Pythium EC50 (ppm), Botrytis EC50 (ppm) and Venturia MIC (ppm), respectively.

[3] = Tobacco root assay for phytotoxicity (in vitro root elongation); settings: 7 days, 27° C., read-out: Tob. EC50
Procedure: The compounds of Examples 1-20 were tested in vitro for fungicidal activity and phytotoxicity.
B. The compounds were tested in vitro for phytotoxicity in a tobacco root elongation assay.
Tobacco root assay for Phytotoxicity:
A dilution series of test compound was prepared in dimethylsulfoxide and 20 ul of each dilution was added to 20 ml of molten nutrient medium, consisting of Murashige and Skoog salt base, 2% sucrose and 1% agar, to give the desired concentrations of test compound. The mixtures were poured immediately into 9 cm diameter petri dishes. Surface-sterilized tobacco seeds were placed on each plate (20 seeds per plate) and the plates incubated in a vertical position in a 27° C. incubator with a 16 hour photoperiod. After 7 days the mean root lengths were calculated, and EC50 values determined from dose response curves.
Results of the tobacco root assay are set forth below in Table 3 as Tob. EC50 (ppm).

Rhizoctonia solani = assay: microbe, parasite or virus in culture; type: cell-based; settings: 72 h, 3 days at room temperature, read-out: RHI percent inhibition of fungal growth
Fusarium roseum = assay: microbe, parasite or virus in culture; type: cell-based; settings: Fusarium sambucinum, 72 h, read-out: FUS percent inhibition of fungal growth
Piricularia oryzae = assay: organism not typed; type: cell-based; settings: 72 h, read-out: PIR percent inhibition of fungal growth
Phytophthora capsici = assay: microbe, parasite or virus in culture; type: cell-based; settings: 72 h, 3 days at room temperature, read-out: PHY percent inhibition of fungal growth
Cercospora beticola = assay: microbe, parasite or virus in culture; type: cell-based; settings: 72 h, 3 days at room temperature, read-out: CER percent inhibition of fungal growth
Pythium ultimum [4] = assay: microbe, parasite or virus in culture; type: cell-based; settings: Globisporangium ultimum, 72 h, 3 days at room temperature, read-out: PYU percent inhibition of fungal growth
Monilinia fructicol = assay: microbe, parasite or virus in culture; type: cell-based; settings: 72 h, 3 days at room temperature, read-out: MON percent inhibition of fungal growth
[5] = test system: Pseudocercosporella herpotrichoides; assay: microbe, parasite or virus in culture; type: cell-based; settings: Oculimacula yallundae, 72 h, 3 days at room temperature, read-out: PSH percent inhibition of fungal growth
Botrytis cinerea [6] = assay: microbe, parasite or virus in culture; type: cell-based; settings: 72 h, 3 days at room temperature, read-out: BOC percent inhibition of fungal growth
[7] = test system: Colletotrichum lagenarium; assay: microbe, parasite or virus in culture; type: cell-based; settings: Colletotrichum orbiculare, 72 h, 3 days at room temperature, read-out: COL percent inhibition of fungal growth
cucumber plants = assay: In vivo phytotoxic activity, foliar spray, cucumber; set-up: key: +: indicating presence of a plant growth regulatory effect as compared to a control to which a solvent mixture (acetone/water/methanol) lacking the test compound was applied; 0: A zero indicates no apparent effect; settings: foliar spray 2200 g/Ha, seven days after application
Procedure: (§1) The compounds of Examples 1 and 12 were tested in vivo for phytotoxic activity by applying the compounds to the foliage of cucumber, tomato, bean, lettuce and strawberry plants as a spray at a rate of 2200 g/Ha. The plants were evaluated seven days after spray application of the compounds.
(§2) Phototoxicity scores are set forth below in Table 6. The phytotoxicity scores use a symbol, "+", indicating presence of a plant growth regulatory effect as compared to a control to which a solvent mixture (acetone/water/methanol) lacking the test compound was applied. A zero indicates no apparent effect. Each score is a composite representing the mode value for three replicate plants.

bean plants = assay: In vivo phytotoxic activity, foliar spray, bean; set-up: key: +: indicating presence of a plant growth regulatory effect as compared to a control to which a solvent mixture (acetone/water/methanol) lacking the test compound was applied; 0: A zero indicates no apparent effect; settings: foliar spray 2200 g/Ha, seven days after application
Procedure: as §1, §2

tomato plants = assay: In vivo phytotoxic activity, foliar spray, tomato; set-up: key: +: indicating presence of a plant growth regulatory effect as compared to a control to which a solvent mixture (acetone/water/methanol) lacking the test compound was applied; 0: A zero indicates no apparent effect; settings: foliar spray 2200 g/Ha, seven days after application
Procedure: as §1, §2

lettuce plants = assay: In vivo phytotoxic activity, foliar spray, lettuce; set-up: key: +: indicating presence of a plant growth regulatory effect as compared to a control to which a solvent mixture (acetone/water/methanol) lacking the test compound was applied; 0: A zero indicates no apparent effect; settings: foliar spray 2200 g/Ha, seven days after application
Procedure: as §1, §2

strawberry plants = assay: In vivo phytotoxic activity, foliar spray, strawberry; set-up: key: +: indicating presence of a plant growth regulatory effect as compared to a control to which a solvent mixture (acetone/water/methanol) lacking the test compound was applied; 0: A zero indicates no apparent effect; settings: foliar spray 2200 g/Ha, seven days after application
Procedure: as §1, §2

| Compound | MIC (Venturia inaequalis) [µg/mL] | IC50 (Pythium ultimum [1]) [µg/mL] | IC50 (Botrytis cinerea [2]) [µg/mL] | IC50 at 168 h [3] [µg/mL] | also measured |
| --- | --- | --- | --- | --- | --- |
| CCC(C)(NC(=O)c1cc(C)cc(C=NO)c1)C(=O)CCl (stereo not shown) [Example 18] | > 25 | 5.95 (≈ 19.1 µM) | 53.9 (≈ 173 µM) | – | – |
| CCC(C)(NC(=O)c1cccc(C=NOCC(=O)OC)c1)C(=O)CCl (stereo not shown) [Example 7] | > 25 | 22.8 (≈ 61.8 µM) | > 100 | 9.48 (≈ 25.7 µM) | – |
| CCC(C)(NC(=O)c1cccc(C=NOC)c1)C(=O)CSC#N (stereo not shown) [Example 13, N-[3'-(1'-thiocyano-3'-methyl-2'oxopentan)]-3-methoxyiminomethylbenzamide] | – | 7.38 (≈ 22.1 µM) | – | > 20 | – |
| CON=Cc1cccc(C(=O)NC(C)(C)C(=O)CCl)c1 [Example 2, 3-(3'-Methoxyiminomethylbenzamido)-1-chloro-3-methylbutan-2-one] | 12.5 (≈ 42.1 µM) | 1.61 (≈ 5.43 µM) | 71.3 (≈ 240 µM) | 4.94 (≈ 16.6 µM) | – |
| CCC(C)(NC(=O)c1cc(Cl)cc(C=NOC)c1)C(=O)CCl (stereo not shown) [Example 9, N-[3'-(1'-chloro-3'-methyl-2'-oxopentan)]-3-chloro-5-methoxyiminomethylbenzamide] | 0.05 (≈ 0.145 µM) | 0.05 (≈ 0.145 µM) | 0.25 (≈ 0.724 µM) | 0.06 (≈ 0.174 µM) | inhibition at 25 ppm (Rhizoctonia solani): 90%; inhibition at 25 ppm (Fusarium roseum): 75%; inhibition at 25 ppm (Piricularia oryzae): 100%; inhibition at 25 ppm (Phytophthora capsici): 100%; inhibition at 25 ppm (Cercospora beticola): 100%; inhibition at 25 ppm (Pythium ultimum [4]): 100%; inhibition at 25 ppm (Monilinia fructicol): 100%; inhibition at 25 ppm [5]: 100%; inhibition at 25 ppm (Botrytis cinerea [6]): 90%; inhibition at 25 ppm [7]: 90% |
| CCON=Cc1cccc(C(=O)NC(C)(CC)C(=O)CCl)c1 (stereo not shown) [Example 3] | 6.25 (≈ 19.2 µM) | 2.07 (≈ 6.37 µM) | 21.8 (≈ 67.1 µM) | 5.35 (≈ 16.5 µM) | – |
| CCC(C)(NC(=O)c1cccc(C=NOC)c1)C(=O)CCl (stereo not shown) [Example 1, 3-(3'-Methoxyiminomethylbenzamido)-1-chloro-3-methylpentan-2-one] | 1.56 (≈ 5.02 µM) | 0.31 (≈ 0.997 µM) | 9.5 (≈ 30.6 µM) | 1.86 (≈ 5.98 µM) | phytotoxicity score, Cucumber (cucumber plants): 0; phytotoxicity score, Bean (bean plants): 0; phytotoxicity score, Tomato (tomato plants): 0; phytotoxicity score, Lettuce (lettuce plants): 0; phytotoxicity score, Strawberry (strawberry plants): + |
| CCON=Cc1cccc(C(=O)NC(C)(CC)C(=O)C(Cl)Cl)c1 (stereo not shown) [Example 4] | > 25 | 68.4 (≈ 190 µM) | 68.9 (≈ 192 µM) | – | – |

Source: patent publication US5254584A, “N-acetonylbenzamides and their use as fungicides” (Rohm and Haas Company, priority 1992, dated 1993)
